What was measured:
Type in all cases: in vivo
GPA (Myzus persicae) = assay: Bioassays on Green Peach Aphid (GPA), foliar spray on cabbage seedlings; conditions: 72 h, corrected % control (Abbott), 200 ppm spray on cabbage seedlings, three days, read-out: GPA Rating
Procedure: Bioassays on Green Peach Aphid (“GPA”) (Myzus persicae) Certain molecules disclosed in this document were tested against GPA using procedures described in the following example. In the reporting of the results, the “GPA Rating Table” was used (See Table Section). Cabbage seedlings grown in 3-inch pots, with 2-3 small (3-5 cm) true leaves, were used as test substrate. The seedlings were infested with 20-50 GPA (wingless adult and nymph stages) one day prior to chemical application. Four pots with individual seedlings were used for each treatment. Test compounds (2 mg) were dissolved in 2 mL of acetone/MeOH (1:1) solvent, forming stock solutions of 1000 ppm test compound. The stock solutions were diluted 5× with 0.025% Tween 20 in H2O to obtain the solution at 200 ppm test compound. A hand-held aspirator-type sprayer was used for spraying a solution to both sides of […] leaves until runoff. Reference plants (solvent check) were sprayed with the diluent only containing 20% by volume of acetone/MeOH (1:1) solvent. Treated plants were held in a holding room for three days at approximately 25° C. and ambient relative humidity (RH) prior to grading. Evaluation was conducted by counting the number of live aphids per plant under a microscope. Percent Control was measured by using Abbott's correction formula (W. S. Abbott, “A Method of Computing the Effectiveness of an Insecticide” J. Econ. Entomol. 18 (1925), pp. 265-267) as follows. Corrected % Control=100*(X−Y)/X • where • X=No. of live aphids on solvent check plants and • Y=No. of live aphids on treated plants The results are indicated in the table entitled “Table 3: Assay Results” (See Table Section).

CEW (Helicoverpa zea) = assay: Bioassays on Corn Earworm (CEW), 128-well diet tray assay; conditions: Helicoverpa zea, 168 h; percent mortality, second instar larvae, 50 μg/cm^2 on artificial diet, five to seven days, 25° C.; read-out: CEW Rating
Procedure: (§1) Bioassays on Beet Armyworm (“BAW”) and Corn Earworm (“CEW”) and Cabbage Looper (“CL”)
(§2) Certain molecules disclosed in this document were tested against BAW and CEW and CL using procedures described in the following examples. In the reporting of the results, the “BAW & CEW & CL Rating Table” was used (See Table Section).
Bioassays on CEW (Helicoverpa zea)
Bioassays on CEW were conducted using a 128-well diet tray assay. one to five second instar CEW larvae were placed in each well (3 mL) of the diet tray that had been previously filled with 1 mL of artificial diet to which 50 μg/cm^2 of the test compound (dissolved in 50 μL of 90:10 acetone-water mixture) had been applied (to each of eight wells) and then allowed to dry. Trays were covered with a clear self-adhesive cover, and held at 25° C., 14:10 light-dark for five to seven days. Percent mortality was recorded for the larvae in each well; activity in the eight wells was then averaged. The results are indicated in the table entitled “Table 3: Assay Results” (See Table Section).

BAW (Spodoptera exigua) = assay: Bioassays on Beet Armyworm (BAW), 128-well diet tray assay; conditions: Spodoptera exigua, 168 h, read-out: BAW Rating
Procedure: as §1, §2
Bioassays on BAW (Spodoptera exigua)
Bioassays on BAW were conducted using a 128-well diet tray assay. one to five second instar BAW larvae were placed in each well (3 mL) of the diet tray that had been previously filled with 1 mL of artificial diet to which 50 μg/cm^2 of the test compound (dissolved in 50 μL of 90:10 acetone-water mixture) had been applied (to each of eight wells) and then allowed to dry. Trays were covered with a clear self-adhesive cover, and held at 25° C., 14:10 light-dark for five to seven days. Percent mortality was recorded for the larvae in each well; activity in the eight wells was then averaged. The results are indicated in the table entitled “Table 3: Assay Results” (See Table Section).

Row | SMILES | pest or weed control at 200 ppm (GPA (Myzus persicae)) | pest or weed control at 50 µg/cm2 (CEW (Helicoverpa zea)) | pest or weed control at 50 µg/cm2 (BAW (Spodoptera exigua))
1 | CNC(=O)c1ccc(/C=C/C(c2cc(Cl)cc(Cl)c2)C(F)(F)F)cc1 (stereo not shown) [AC1] | 0 to 80% |  | 
2 | CN(C)C(=O)c1ccc(/C=C/C(c2cc(Cl)cc(Cl)c2)C(F)(F)F)cc1 (stereo not shown) [AC3] | 0 to 80% |  | 
3 | O=C(NCC(F)(F)F)c1ccc(/C=C/C(c2cc(Cl)cc(Cl)c2)C(F)(F)F)cc1 (stereo not shown) [AC4] | 0 to 80% | 50 to 100% | 
4 | O=C(c1ccc(/C=C/C(c2cc(Cl)cc(Cl)c2)C(F)(F)F)cc1)N1CCOCC1 (stereo not shown) [AC5] | 0 to 80% |  | 
5 | Cc1cc(/C=C/C(c2cc(Cl)cc(Cl)c2)C(F)(F)F)ccc1C(=O)NCC1CCOC1 (stereo not shown) [AC19] | 0 to 80% |  | 
6 | Cc1cc(/C=C/C(c2cc(Cl)cc(Cl)c2)C(F)(F)F)ccc1C(=O)NCC(=O)NNC(=O)C1CC1 (stereo not shown) [AC47] | 0 to 80% |  | 
7 | Cc1cc(/C=C/C(c2cc(Cl)cc(Cl)c2)C(F)(F)F)ccc1C(=O)NCc1nccn1C (stereo not shown) [AC50] | 0 to 80% |  | 50 to 100%
8 | COc1cc(/C=C/C(c2cc(Cl)c(F)c(Cl)c2)C(F)(F)F)ccc1C(=O)NCc1ccc(Cl)nc1 (stereo not shown) [AC70] | 0 to 80% |  | 
9 | Cc1cc(/C=C/C(c2cc(Cl)cc(Cl)c2)C(F)(F)F)ccc1C(=O)N(C)Cc1ccc(Cl)nc1 (stereo not shown) [AC117] | 0 to 80% |  | 50 to 100%
10 | CC(C)(C)C(=O)NCc1ccc(/C=C/C(c2cc(Cl)c(Cl)c(Cl)c2)C(F)(F)F)cc1Cl (stereo not shown) [CC12] | 0 to 80% |  | 
11 | O=C(NCc1ccc(/C=C/C(c2cc(Cl)c(Cl)c(Cl)c2)C(F)(F)F)cc1Br)C1CC1 (stereo not shown) [CC26] | 0 to 80% |  | 50 to 100%
12 | CC(C)(C)OC(=O)NCc1ccc(/C=C/C(c2cc(Cl)c(Cl)c(Cl)c2)C(F)(F)F)cc1Cl (stereo not shown) [CC39] | 0 to 80% |  | 
13 | COC(=O)C(=O)NCc1ccc(/C=C/C(c2cc(Cl)c(Cl)c(Cl)c2)C(F)(F)F)cc1Cl (stereo not shown) [CC41, (E)-Methyl 2-((2-chloro-4-(4,4,4-trifluoro-3-(3,4,5-trichlorophenyl)but-1-en-1-yl)benzyl)amino)-2-oxoacetate] | 0 to 80% |  | 
14 | O=C(CC(F)(F)F)NOc1ccc(/C=C/C(c2cc(Cl)c(Cl)c(Cl)c2)C(F)(F)F)cc1 (stereo not shown) [CC53] | 0 to 80% |  | 
15 | N#Cc1cc(/C=C/C(c2cc(Cl)c(Cl)c(Cl)c2)C(F)(F)F)ccc1-n1cnc([N+](=O)[O-])n1 (stereo not shown) [DC40, (E)-2-(3-Nitro-1H-1,2,4-triazol-1-yl)-5-(4,4,4-trifluoro-3-(3,4,5-trichlorophenyl)but-1-en-1-yl)benzonitrile] |  | 50 to 100% | 50 to 100%
16 | N#Cc1cc(/C=C/C(c2cc(Cl)c(Cl)c(Cl)c2)C(F)(F)F)ccc1-n1cnc(N)n1 (stereo not shown) [DC41, (E)-2-(3-Amino-1H-1,2,4-triazol-1-yl)-5-(4,4,4-trifluoro-3-(3,4,5-trichlorophenyl)but-1-en-1-yl)benzonitrile] |  | 50 to 100% | 50 to 100%
17 | N#Cc1cc(/C=C/C(c2cc(Cl)c(Cl)c(Cl)c2)C(F)(F)F)ccc1-n1cnc(N(C(=O)C2CC2)C(=O)C2CC2)n1 (stereo not shown) [DC42, (E)-N-(1-(2-Cyano-4-(4,4,4-trifluoro-3-(3,4,5-trichlorophenyl)but-1-en-1-yl)phenyl)-1H-1,2,4-triazol-3-yl)-N-(cyclopropanecarbonyl)cyclopropanecarboxamide] |  | 50 to 100% | 50 to 100%

Row | SMILES | pest or weed control at 200 ppm (GPA (Myzus persicae)) | pest or weed control at 50 µg/cm2 (CEW (Helicoverpa zea)) | pest or weed control at 50 µg/cm2 (BAW (Spodoptera exigua))
18 | N#Cc1cc(/C=C/C(c2cc(Cl)c(Cl)c(Cl)c2)C(F)(F)F)ccc1-n1cnc(NC(=O)C2CC2)n1 (stereo not shown) [DC43, (E)-N-(1-(2-Cyano-4-(4,4,4-trifluoro-3-(3,4,5-trichlorophenyl)but-1-en-1-yl)phenyl)-1H-1,2,4-triazol-3-yl)cyclopropanecarboxamide] |  | 50 to 100% | 50 to 100%
19 | Cc1cc(/C=C/C(c2cc(Cl)cc(Cl)c2)C(F)(F)F)cc(C#N)c1-n1cncn1 (stereo not shown) [DC44] |  | 50 to 100% | 50 to 100%
20 | Cc1cc(/C=C/C(c2cc(Cl)c(Cl)c(Cl)c2)C(F)(F)F)cc(C#N)c1-n1cncn1 (stereo not shown) [DC45] |  | 50 to 100% | 50 to 100%
21 | N#Cc1cc(/C=C\C(c2cc(Cl)c(F)c(Cl)c2)C(F)(F)F)ccc1-n1cncn1 (stereo not shown) [DC46] |  | 50 to 100% | 50 to 100%
22 | FC(F)(F)C(/C=C/c1ccc(-n2cncn2)c(Br)c1)c1cc(Cl)cc(Cl)c1 (stereo not shown) [DC47] |  | 50 to 100% | 50 to 100%
23 | Fc1cc(/C=C/C(c2cc(Cl)cc(Cl)c2)C(F)(F)F)ccc1-n1cncn1 (stereo not shown) [DC48] |  | 50 to 100% | 50 to 100%
24 | FC(F)(F)C(/C=C/c1ccc(-n2cncn2)c(Cl)c1)c1cc(Cl)c(Cl)c(Cl)c1 (stereo not shown) [DC49] |  | 50 to 100% | 50 to 100%
25 | FC(F)(F)C(/C=C/c1ccc(-n2cncn2)c(Cl)c1)c1cc(Cl)cc(Cl)c1 (stereo not shown) [DC50] |  | 50 to 100% | 50 to 100%
26 | FC(F)(F)c1cc(/C=C/C(c2cc(Cl)cc(Cl)c2)C(F)(F)F)ccc1-n1cncn1 (stereo not shown) [DC51] |  | 50 to 100% | 50 to 100%
27 | CNc1cc(/C=C/C(c2cc(Cl)cc(Cl)c2)C(F)(F)F)ccc1-n1cncn1 (stereo not shown) [DC57, (E)-5-(3-(3,5-Dichlorophenyl)-4,4,4-trifluorobut-1-en-1-yl)-N-methyl-2-(1H-1,2,4-triazol-1-yl)aniline] |  | 50 to 100% | 50 to 100%
28 | CCOC(=O)c1cc(/C=C/C(c2cc(Cl)cc(Cl)c2)C(F)(F)F)ccc1-n1cncn1 (stereo not shown) [DC60] |  | 50 to 100% | 50 to 100%
29 | Cc1cc(/C=C/C(c2cc(Cl)cc(Cl)c2)C(F)(F)F)ccc1-n1cncn1 (stereo not shown) [DC62] |  | 50 to 100% | 50 to 100%
30 | Cc1cc(/C=C/C(c2cc(Cl)c(Cl)c(Cl)c2)C(F)(F)F)ccc1-n1cncn1 (stereo not shown) [DC63] |  | 50 to 100% | 50 to 100%
31 | FC(F)(F)C(/C=C/c1ccc(-n2cncn2)cc1Cl)c1cc(Cl)c(Cl)c(Cl)c1 (stereo not shown) [DC66] |  | 50 to 100% | 50 to 100%
32 | FC(F)(F)C(/C=C/c1ccc(-n2cncn2)cc1Cl)c1cc(Cl)cc(Cl)c1 (stereo not shown) [DC67] |  | 50 to 100% | 50 to 100%
33 | C/C(=C\C(c1cc(Cl)cc(Cl)c1)C(F)(F)F)c1ccc(-n2cncn2)cc1 (stereo not shown) [DC68, (E)-1-(4-(4-(3,5-Dichlorophenyl)-5,5,5-trifluoropent-2-en-2-yl)phenyl)-1H-1,2,4-triazole] |  | 50 to 100% | 50 to 100%
34 | COC(/C=C/c1ccc(-n2cncn2)cc1)(c1cc(Cl)cc(Cl)c1)C(F)(F)F (stereo not shown) [DC70, (E)-1-(4-(3-(3,5-Dichlorophenyl)-4,4,4-trifluoro-3-methoxybut-1-en-1-yl)phenyl)-1H-1,2,4-triazole] |  | 50 to 100% | 50 to 100%

— US9210927B2, “Pesticidal compositions and processes related thereto” (Dow AgroSciences LLC, priority 2013, dated 2015)
